Source: paper PMC6222323, “Exploiting the Chalcone Scaffold to Develop Multifunctional Agents for Alzheimer’s Disease” (Molecules : A Journal of Synthetic Chemistry and Natural …, 2018)

How the values were obtained:
[1] = molecular target: BuChE from human serum (hBuChE) (Homo sapiens, UniProt P06276); experiment: biochemical; assay type: biochemical; conditions: for IC50: read-out: IC50 (µM) ± SEM hBuChE
[2] = molecular target: human recombinant AChE (hAChE) (Homo sapiens, UniProt P22303); experiment: biochemical; assay type: biochemical; conditions: for SI: selectivity index for AChE: calculated as IC50 hBuChE/hAChE ratio; for IC50: read-out: IC50 (µM) ± SEM hAChE
human recombinant AChE (hAChE), sequence (P22303 32-614): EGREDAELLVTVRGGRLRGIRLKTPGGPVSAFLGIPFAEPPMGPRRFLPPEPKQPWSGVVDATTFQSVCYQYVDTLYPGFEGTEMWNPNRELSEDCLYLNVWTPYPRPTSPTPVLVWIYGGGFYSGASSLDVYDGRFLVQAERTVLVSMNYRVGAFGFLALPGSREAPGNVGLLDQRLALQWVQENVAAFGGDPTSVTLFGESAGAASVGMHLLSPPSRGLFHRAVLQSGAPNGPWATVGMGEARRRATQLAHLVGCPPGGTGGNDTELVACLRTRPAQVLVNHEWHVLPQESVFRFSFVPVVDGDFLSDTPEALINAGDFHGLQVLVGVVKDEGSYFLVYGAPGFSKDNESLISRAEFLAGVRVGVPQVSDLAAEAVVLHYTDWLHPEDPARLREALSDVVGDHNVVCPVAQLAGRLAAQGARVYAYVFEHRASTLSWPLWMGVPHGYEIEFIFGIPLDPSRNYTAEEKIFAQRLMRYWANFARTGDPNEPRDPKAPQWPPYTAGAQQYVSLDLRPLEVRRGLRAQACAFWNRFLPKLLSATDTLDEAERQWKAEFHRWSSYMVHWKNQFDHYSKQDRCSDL

[3] = test system: SH-SY5Y cells; experiment: Glutathione (GSH) levels (MCB probe); assay type: cell-based, human; conditions: 1.25 µM compound for 24 h, vs. control
[4] = test system: SH-SY5Y cells; experiment: Antioxidant activity, ROS formation induced by t-BuOOH (H2DCF-DA probe); assay type: cell-based; conditions: Homo sapiens, 1.25 µM compound for 24 h, then t-BuOOH 100 µM for 30 min, read-out: inhibition percentage in ROS formation induced by t-BuOOH
[5] = test system: SH-SY5Y cells; assay type: cell-based; conditions: 24 h treatment, 2.5–80 µM tested, MTT assay, SH-SY5Y cells (data not shown)
[6] = test system: SH-SY5Y cells; experiment: Neuroprotective activity toward Aβ1–42 oligomers, MTT formazan exocytosis assay; assay type: cell-based, human; conditions: 1.25 µM compound with OAβ1–42 10 µM for 4 h
[7] = BuChE from human serum, 20 min preincubation at 37 °C, pH 8.0, n.a. = not active, inhibition lower than 15% at the highest tested concentration
[8] = human recombinant AChE, 20 min preincubation at 37 °C, pH 8.0, n.a. = not active, inhibition lower than 15% at the highest tested concentration

BuChE from human serum (hBuChE), sequence (P06276 29-602): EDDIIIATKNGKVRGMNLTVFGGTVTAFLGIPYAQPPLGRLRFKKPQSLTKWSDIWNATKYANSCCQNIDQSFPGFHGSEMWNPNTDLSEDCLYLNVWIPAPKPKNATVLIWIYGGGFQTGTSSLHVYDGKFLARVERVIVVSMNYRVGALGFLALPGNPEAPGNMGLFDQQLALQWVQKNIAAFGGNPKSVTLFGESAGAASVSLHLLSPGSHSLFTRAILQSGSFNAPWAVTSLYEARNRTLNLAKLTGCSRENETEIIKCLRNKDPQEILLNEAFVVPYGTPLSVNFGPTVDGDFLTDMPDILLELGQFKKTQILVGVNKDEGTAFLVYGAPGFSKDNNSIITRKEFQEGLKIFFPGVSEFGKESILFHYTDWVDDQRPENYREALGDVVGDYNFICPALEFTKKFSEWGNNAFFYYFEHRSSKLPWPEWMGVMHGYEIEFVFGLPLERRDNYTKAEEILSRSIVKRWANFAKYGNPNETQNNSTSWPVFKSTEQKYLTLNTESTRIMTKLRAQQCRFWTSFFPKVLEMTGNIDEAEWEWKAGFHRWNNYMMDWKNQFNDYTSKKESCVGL

SMILES	IC50 [1, 7] [µM]	SI: selectivity index for AChE [2]	IC50 [2, 8] [µM]	further results
CCN(CC)CCCCOc1ccc(C(=O)C=Cc2ccc(OCCCCCCCN(C)Cc3ccccc3)cc2)cc1 [compound 5, 3-(4-((7-(Benzyl(methyl)amino)heptyl)oxy)phenyl)-1-(4-(4-(diethylamino)butoxy)phenyl)prop-2-en-1-one]	3.7 ± 0.08	3.5	1.06 ± 0.08	–
CCN(CC)Cc1ccc(C(=O)C=Cc2ccc(OCCCCCCCN(C)Cc3ccccc3)cc2)cc1 [compound 1, 3-(4-((7-(Benzyl(methyl)amino)heptyl)oxy)phenyl)-1-(4-((diethylamino)methyl)phenyl)prop-2-en-1-one]	8.83 ± 0.58	3.14	2.81 ± 0.29	fold increase in hAChE inhibitory activity ([2]; methylendiethylamino group in place of the methoxy group (compounds 2, 12)): 35 fold
CN(CCCCCCCOc1ccc(C=CC(=O)c2ccc(OCCN3CCc4ccccc4C3)cc2)cc1)Cc1ccccc1 [compound 8, 3-(4-((7-(Benzyl(methyl)amino)heptyl)oxy)phenyl)-1-(4-(2-(3,4-dihydroisoquinolin-2(1H)-yl)ethoxy)phenyl)prop-2-en-1-one]	3.87 ± 0.3	0.23	16.5 ± 2.6	–
CN(CCCCCCCOc1ccc(C=CC(=O)c2ccc(OCCN3CCCCC3)cc2)cc1)Cc1ccccc1 [compound 7, 3-(4-((7-(Benzyl(methyl)amino)heptyl)oxy)phenyl)-1-(4-(2-(piperidin-1-yl)ethoxy)phenyl)prop-2-en-1-one]	19.7 ± 0.6	15.8	1.25 ± 0.06	–
CCN(CC)CCOc1cccc(C(=O)C=Cc2ccc(OCCCCCCCN(C)Cc3ccccc3)cc2)c1 [compound 13, 3-(4-((7-(Benzyl(methyl)amino)heptyl)oxy)phenyl)-1-(3-(2-(diethylamino)ethoxy)phenyl)-prop-2-en-1-one]	0.92 ± 0.04	0.62	1.47 ± 0.11	–
CCN(CC)CCCCOc1ccc(C(=O)CCc2ccc(OCCCCCCCN(C)Cc3ccccc3)cc2)cc1 [compound 18, 3-(4-((7-(Benzyl(methyl)amino)heptyl)oxy)phenyl)-1-(4-(4-(diethylamino)butoxy)phenyl)-propan-1-one]	12.4 ± 2.4	5.04	2.46 ± 0.11	–
CCN(CC)CCCOc1ccc(C(=O)CCc2ccc(OCCCCCCCN(C)Cc3ccccc3)cc2)cc1 [compound 17, 3-(4-((7-(Benzyl(methyl)amino)heptyl)oxy)phenyl)-1-(4-(3-(diethylamino)propoxy)phenyl)-propan-1-one]	5.04 ± 0.3	3.04	1.66 ± 0.09	effect on GSH levels [3]: significantly increased GSH levels; inhibition at 1.25 µM [4]: 23%; concentrations that did not affect neuronal viability [5]: up to 2.5 µM; neuroprotective activity toward OAβ1–42 induced toxicity (neuronal viability) [6]: No neuroprotective effect
CN(CCCCCCCOc1ccc(C=CC(=O)c2ccc(OCCN3CCOCC3)cc2)cc1)Cc1ccccc1 [compound 6, 3-(4-((7-(Benzyl(methyl)amino)heptyl)oxy)phenyl)-1-(4-(2-morpholinoethoxy)phenyl)prop-2-en-1-one]	11 ± 0.5	0.021	511 ± 37	fold worse hAChE inhibition than compound 7 ([2]; morpholino vs piperidine derivative): about 500 fold
CN(CCCCCCCOc1ccc(C=CC(=O)c2ccc(OCCN3CCC(n4c(=O)[nH]c5ccccc54)CC3)cc2)cc1)Cc1ccccc1 [compound 9, 1-(1-(2-(4-(3-(4-((7-(Benzyl(methyl)amino)heptyl)oxy)phenyl)acryloyl)phenoxy)ethyl)-piperidin-4-yl)-1,3-dihydro-2H-benzo[d]imidazol-2-one]	3.93 ± 0.2	0.29	13.5 ± 2.3	–
CCN(CC)CCCOc1ccc(C(=O)C=Cc2ccc(OCCCCCCCN(C)Cc3ccccc3)cc2)cc1 [compound 4, 3-(4-((7-(Benzyl(methyl)amino)heptyl)oxy)phenyl)-1-(4-(3-(diethylamino)propoxy)phenyl)-prop-2-en-1-one]	2.38 ± 0.05	2.6	0.92 ± 0.07	effect on GSH levels [3]: significantly increased GSH levels; inhibition at 1.25 µM [4]: 27%; concentrations that did not affect neuronal viability [5]: up to 2.5 µM; neuroprotective activity toward OAβ1–42 induced toxicity (neuronal viability) [6]: partially counteracted the neurotoxic effects
CN(CCCCCCCOc1ccc(C=CC(=O)c2ccc(OCCN3CCC(O)(c4ccc(Cl)cc4)CC3)cc2)cc1)Cc1ccccc1 [compound 11, 3-(4-((7-(Benzyl(methyl)amino)heptyl)oxy)phenyl)-1-(4-(2-(4-(4-chlorophenyl)-4-hydroxypiperidin-1-yl)ethoxy)phenyl)prop-2-en-1-one]	–	–	–	IC50 (µM) ± SEM hBuChE ([1]; pH 8): inactive; IC50 (µM) ± SEM hAChE ([2]; pH 8): inactive
CCN(CC)CCOc1ccc(C(=O)CCc2ccc(OCCCCCCCN(C)Cc3ccccc3)cc2)cc1 [compound 16, 3-(4-((7-(Benzyl(methyl)amino)heptyl)oxy)phenyl)-1-(4-(2-(diethylamino)ethoxy)phenyl)-propan-1-one]	20.2 ± 1.7	3.25	6.21 ± 0.32	–
COc1cccc(C(=O)C=Cc2ccc(OCCCCCCCN(C)Cc3ccccc3)cc2)c1 [compound 12, 3-(4-((7-(Benzyl(methyl)amino)heptyl)oxy)phenyl)-1-(3-methoxyphenyl)prop-2-en-1-one]	8.58 ± 0.35	0.08	105 ± 17	–
CCN(CC)CCOc1ccc(C(=O)C=Cc2ccc(OCCCCCCCN(C)Cc3ccccc3)cc2)cc1 [compound 3, 3-(4-((7-(Benzyl(methyl)amino)heptyl)oxy)phenyl)-1-(4-(2-(diethylamino)ethoxy)phenyl)-prop-2-en-1-one]	19.9 ± 5.5	28.4	0.7 ± 0.09	–
COc1ccc(C(=O)C=Cc2ccc(OCCCCCCCN(C)Cc3ccccc3)cc2)cc1 [compound 2, 3-(4-((7-(Benzyl(methyl)amino)heptyl)oxy)phenyl)-1-(4-methoxyphenyl)prop-2-en-1-one]	2.85 ± 0.7	0.03	98.5 ± 8.8	effect on GSH levels [3]: decreased GSH basal levels; inhibition at 1.25 µM [4]: 16%; concentrations that did not affect neuronal viability [5]: up to 2.5 µM; neuroprotective activity toward OAβ1–42 induced toxicity (neuronal viability) [6]: reinforced the neurotoxic effects
CN(CCCCCCCOc1ccc(C=CC(=O)c2ccc(OCCN3CCC(c4ccccc4)CC3)cc2)cc1)Cc1ccccc1 [compound 10, 3-(4-((7-(Benzyl(methyl)amino)heptyl)oxy)phenyl)-1-(4-(2-(4-phenylpiperidin-1-yl)ethoxy)-phenyl)prop-2-en-1-one]	–	–	–	IC50 (µM) ± SEM hBuChE [1, 7]: inactive; IC50 (µM) ± SEM hAChE [2, 8]: inactive
CCN(CC)CCCOc1cccc(C(=O)C=Cc2ccc(OCCCCCCCN(C)Cc3ccccc3)cc2)c1 [compound 14, 3-(4-((7-(Benzyl(methyl)amino)heptyl)oxy)phenyl)-1-(3-(3-(diethylamino)propoxy)phenyl)-prop-2-en-1-one]	1.82 ± 0.05	0.31	5.78 ± 0.67	–
